Assay results published in ChEMBL document CHEMBL1201862, “PubChem BioAssay data set” (2004).
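Grown in 96-well plates, cells were treated for 48 hours with each compound at five concentrations. Insufficient inhibition: endpoint recorded as highest concentration tested. At the GI50, growth is halved.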 Calls of active or inactive are those of the source. Rule as the data show it: active = GI50 up to about 1.1 µM and inactive = higher.

Key:
Assay in all cases: growth of human tumour cells (NCI), 48 h
HT-29 = tested on: HT-29
NCI-H522 = tested on: NCI-H522
SN12C = tested on: SN12C
DMS-114 = tested on: DMS-114
NCI-H23 = tested on: NCI-H23
XF498 = tested on: XF498
M19-MEL = tested on: M19-MEL
HCC 2998 = tested on: HCC 2998
OVCAR-4 = tested on: OVCAR-4
UACC-62 = tested on: UACC-62
M14 = tested on: M14
SF-295 = tested on: SF-295
CAKI-1 = tested on: CAKI-1
SK-MEL-5 = tested on: SK-MEL-5
KM12 = tested on: KM12
A498 = tested on: A498
HOP-18 = tested on: HOP-18
DU-145 = tested on: DU-145
MDA-MB-231 = tested on: MDA-MB-231
Hs-578T = tested on: Hs-578T

| SMILES | GI50 (HT-29) | GI50 (NCI-H522) | GI50 (SN12C) | GI50 (DMS-114) | GI50 (NCI-H23) | GI50 (XF498) | GI50 (M19-MEL) | GI50 (HCC 2998) | GI50 (OVCAR-4) | GI50 (UACC-62) | GI50 (M14) | GI50 (SF-295) | GI50 (CAKI-1) | GI50 (SK-MEL-5) | GI50 (KM12) | GI50 (A498) | GI50 (HOP-18) | GI50 (DU-145) | GI50 (MDA-MB-231) | GI50 (Hs-578T) |
| --- | --- | --- | --- | --- | --- | --- | --- | --- | --- | --- | --- | --- | --- | --- | --- | --- | --- | --- | --- | --- |
| O=[N+]([O-])c1c(/C=N/Nc2ccccc2)oc(-c2ccc3c(c2)OCO3)c1-c1ccc2c(c1)OCO2 | 23.8 µM (inactive) | 27 µM (inactive) | 64.3 µM (inactive) | 5.02 µM (inactive) | 51.2 µM (inactive) | 2.89 µM (inactive) | 13.8 µM (inactive) | 5.71 µM (inactive) | 21.5 µM (inactive) | 3.19 µM (inactive) | 3 µM (inactive) | 26.9 µM (inactive) | 8.22 µM (inactive) |  |  |  |  |  |  |  |
| COc1ccc(CNc2cnc3cc(N)ccc3n2)cc1 | > 100 µM (inactive) | > 100 µM (inactive) | > 100 µM (inactive) | > 100 µM (inactive) | > 100 µM (inactive) | > 100 µM (inactive) | > 100 µM (inactive) | > 100 µM (inactive) | > 100 µM (inactive) | > 100 µM (inactive) | > 100 µM (inactive) | 94.4 µM (inactive) |  | > 100 µM (inactive) | > 100 µM (inactive) |  |  |  |  |  |
| CCN/C(=N\Nc1ccc([N+](=O)[O-])cc1)P(=O)(OC(C)C)OC(C)C |  | > 100 µM (inactive) | > 100 µM (inactive) | > 100 µM (inactive) | > 100 µM (inactive) | 66.5 µM (inactive) | > 100 µM (inactive) | > 100 µM (inactive) | 44.2 µM (inactive) | 64 µM (inactive) | > 100 µM (inactive) |  | > 100 µM (inactive) | 41.1 µM (inactive) | > 100 µM (inactive) | > 100 µM (inactive) |  |  |  |  |
| Cc1cnc2c(c1)C(=O)C1=C(OC(C)(C)CC1O)C2=O (configuration not stated) | 20.6 µM (inactive) | 15.8 µM (inactive) | 15.6 µM (inactive) | 10.4 µM (inactive) | 10.7 µM (inactive) | 19.5 µM (inactive) | 3.1 µM (inactive) | 17.7 µM (inactive) | 12.8 µM (inactive) | 3.79 µM (inactive) | 16.4 µM (inactive) | 13.3 µM (inactive) |  | 14 µM (inactive) | > 100 µM (inactive) |  | 15.8 µM (inactive) |  |  |  |
| NC1=C(NC(=O)Cc2ccc(F)cc2)C(=O)c2ccccc2C1=O | > 100 µM (inactive) | 22.7 µM (inactive) | > 100 µM (inactive) | 16 µM (inactive) | 12.2 µM (inactive) | > 78.7 µM (inactive) | 9.73 µM (inactive) | > 100 µM (inactive) | > 100 µM (inactive) | 36.4 µM (inactive) | 43.8 µM (inactive) | 33.3 µM (inactive) | > 100 µM (inactive) | 14.4 µM (inactive) | > 76.9 µM (inactive) |  |  |  |  |  |
| c1ccc(C2=NN3CN(N2)c2ccccc2OCCCOc2ccccc23)cc1 | > 100 µM (inactive) | 34.7 µM (inactive) | > 100 µM (inactive) | > 100 µM (inactive) | > 100 µM (inactive) | > 100 µM (inactive) | > 100 µM (inactive) |  | 77.6 µM (inactive) | > 100 µM (inactive) | > 100 µM (inactive) | > 100 µM (inactive) |  | > 100 µM (inactive) | > 100 µM (inactive) |  |  |  |  |  |
| Nc1ncnc2c1ncn2CC(O)C(=O)O (configuration not stated) | > 100 µM (inactive) | > 100 µM (inactive) | > 100 µM (inactive) | > 100 µM (inactive) | > 100 µM (inactive) |  | > 100 µM (inactive) | > 100 µM (inactive) | > 100 µM (inactive) | > 100 µM (inactive) | > 100 µM (inactive) | > 100 µM (inactive) | > 100 µM (inactive) | > 100 µM (inactive) | > 100 µM (inactive) | > 100 µM (inactive) | 71 µM (inactive) | > 100 µM (inactive) | > 100 µM (inactive) | > 100 µM (inactive) |
| CCC(=O)OC[n+]1ccc2c(C)c3[nH]c4ccccc4c3c(C)c2c1 | 0.328 µM (active) |  | 0.401 µM (active) | 0.608 µM (active) | 0.675 µM (active) | 1.88 µM (inactive) | 0.681 µM (active) |  | 0.505 µM (active) |  | 1.08 µM (active) | 0.532 µM (active) | 1.11 µM (active) | 1.25 µM (inactive) | 0.483 µM (active) | 1.21 µM (inactive) | < 0.01 µM (active) |  |  |  |
| O=C(/C=C1\Nc2ccccc2C(=O)N1c1ccc(Cl)cc1)c1ccncc1 | > 100 µM (inactive) | > 100 µM (inactive) | > 100 µM (inactive) | > 100 µM (inactive) | > 100 µM (inactive) | 30.1 µM (inactive) | > 100 µM (inactive) |  | > 100 µM (inactive) | > 100 µM (inactive) | > 100 µM (inactive) | 65 µM (inactive) | > 100 µM (inactive) | > 100 µM (inactive) | > 100 µM (inactive) | 75.7 µM (inactive) |  |  |  |  |
